Source: patent US11529344B2, “EZH2 inhibitor combination therapies” (Pfizer Inc., priority 2017, dated 2022)

What was measured:
H841 SCLC cells = test: Cell growth inhibition assay, H841 SCLC cells; type: cell-based; settings: NCI-H841, 504 h; H841 cell line, 21 days of treatment; read-out: inhibition of cell proliferation, mean IC50
Procedure: COR-L88 (92031917) cells were purchased from ECACC. […] No. 1565565).
H841, H446 and H69 cells were plated in their recommended complete culture medium described above (1 mL/well) in triplicate 12 well plates for each cell line at a density of 100,000 cells per well. Plates were incubated overnight at 37° C. and 5% CO2. Compound 1 stock was prepared at 50 mM in DMSO and was dispensed to several single-use aliquots and stored at −20° C. To prepare the compound plate, Compound 1 was diluted to 3 mM in DMSO and then 3-fold serial dilution were made in DMSO (10 doses in total). […] On Day 21, cell morphology was observed under microscope and any morphology changes upon compound treatment were recorded. […] Cell viability was measured using according to manufacturer's instructions.
Based on the strong activity observed with Compound 1 in DMS114 cells (see example 1 above), the antiproliferative activity of Compound 1 was also tested in 3 additional SCLC cell lines, namely H841, H446 and H69 using the cell proliferation assay described above. Each cell line was treated with different concentrations of Compound 1 using a 10-point dose curve (1:3 dilution in DMSO) with 3 μM to 0.1 nM for 21 days and then assessed for cell viability. […]

[1] = tested on: SLFN11 expression in SCLC cell lines; test: SLFN11 western blotting; type: cell-based; settings: 500 nM for 7 days, several SCLC cell lines
Procedure: SCLC cell lines were treated with 500 nM of Compound 1 in DMSO for 7 days and changes in SLFN11 protein levels were then assessed using western blotting. After drug treatment, cells were trypsized (adherent cells), harvested by centrifugation at 2000 rpm at room temperature, washed with PBS, followed by collection of cell pellets by centrifugation. Cell pellets were re-suspended in appropriate volume of RIPA buffer (Sigma; Catalogue #R0278; 100 ul per 5-10×10^5 cells), incubated on ice for 10-15 min, centrifuged at 12,000 g and 4° C. for 10 min and then supernatant was collected. 15 ug of total protein lysates was run on 4-12% NuPAGE™ Bis-Tris protein gel (NP0336Box) in 1×NuPAGE™ MOPS SDS Running Buffer (NP0001). Gels were run on ice at 80V for 20 minutes and then 150V for 60 minutes. […] The signal was detected using the ECL system (Thermo-34078 and -34096) and imaged on the ImageQuant LAS400 imager.
To understand the potential mechanisms responsible for EZH2i synergy observed with chemotherapy agents, we assessed the effects of Compound 1 treatment on SLFN11 expression, a sensitizer to DNA damaging agents. Several SCLC cell lines were treated with 500 nM of Compound 1 for 7 days and changes in SLFN11 protein levels were assessed using western blotting according to the methodology described above.

Question: How did the IC50 (H841 SCLC cells) turn out when `COc1cc(C)[nH]c(=O)c1CN1CCc2c(Cl)cc([C@H](OC)C3COC3)c(Cl)c2C1=O` [Compound 1, 5,8-dichloro-2-[(4-methoxy-6-methyl-2-oxo-1,2-dihydro-pyridin-3-yl)methyl]-7-[(R)-methoxy(oxetan-3-yl)methyl]-3,4-dihydroisoquinolin-1(2H)-one] was run?
Answer: 73.2 nM

Question: What about the SLFN11 protein expression [1] of the same molecule?
Answer: strong induction of SLFN11 expression
